Reference: patent US20090023667A1 (priority 2005, published 2009)
Like-named read-outs stand apart in the source and are kept apart here.

Columns and labels:
[1] = test system: rice Bakanae disease; experiment: Test Example 7: control test on rice Bakanae disease, seed immersion; assay type: in vivo; details: seed immersion 24 hours
Description: 150 g of dry rice seeds of naturally infected with rice Bakanae disease (cultivar: Nihonbare) was immersed in a compound solution which was diluted with water to have a prescribed concentration at a volume ratio of 1:1 for 24 hours (liquid temperature; 20 degree centigrade) and air-dried. Subsequently, the seeds were soaked in water at 15 degree centigrade for 4 days and subjected to a sprouting in water at 30 degree centigrade for 24 hours, and then sowed in a nursery box. After the sowing, the seeds were incubated at 30 degree centigrade for 2 days and grown in a greenhouse. After 21 days from the sowing, the number of seedlings showing symptoms of Bankanae disease for 300 seedlings per each chemical was examined. The control value was calculated according to the following equation.
(§1) Control Value=(1−number of infected seedlings in the treated plot/number of infected seedlings in the untreated plot)×100

[2] = test system: Rhizoctonia solani; experiment: Test Example 4: control test on paddy rice sheath blight, spraying; assay type: in vivo; details: 60 ppm
Description: A compound solution of a prescribed concentration was sprayed on three 1/5000a rice pots (cultivar: Koshihikari; 4 leaf stage). After one day from the spraying, Rhizoctonia solani cultured on a rice chaff/bran medium was inoculated on the basal of the rice plant. After 10 days from the inoculation, the extended lesion length of sheath blight of the whole stem was examined. The control value was calculated according to the following equation (3 replications).
(§2) Control Value=(1−average lesion length per a stem in the treated plot/average lesion length per a stem in the untreated plot)×100

[3] = test system: Rhizoctonia solani; experiment: Test Example 5: control test on paddy rice sheath blight, submerged application; assay type: in vivo; details: submerged application of granule
Description: (§3) After 14 days from the treatment, Rhizoctonia solani cultured on a rice chaff/bran medium was inoculated on the basal of the rice plant. After 10 days from the inoculation, the extended lesion length of sheath blight of the whole stem was examined. The control value was calculated according to the following equation (3 replications).
as §2

[4] = test system: Rhizoctonia solani; experiment: Test Example 6: control test on paddy rice sheath blight, nursery box application; assay type: in vivo; details: nursery box application of granule
Description: as §3, with “30” for “14”
as §2

[5] = test system: Pyricularia oryzae; assay type: in vivo
[6] = test system: Pyricularia oryzae; experiment: whole plant or invertebrate; assay type: in vivo; details: for pest or weed control at 60 ppm: Pyricularia oryzae, 168 h, read-out: Control value; for Control value: 60 ppm
[7] = test system: Pyricularia oryzae; assay type: in vivo; remark: listed apart in the source
[8] = test system: Pyricularia oryzae; assay type: in vivo; remark: listed apart in the source
[9] = test system: Pythium sp; experiment: Test Example 9: control test on seedling blight (Pythium sp), irrigation; assay type: in vivo; details: irrigation 500 ml per box
Description: 150 g of rice seeds of rice (cultivar: Nihonbare) per a box was sowed on a commercial nursery box. After the sowing, the box was treated by irrigation with a compound solution which was diluted to the prescribed concentration at a ratio of 500 ml per a box before covering the seeds with soil. Infected soil, which was made by adding sterilized water to Pythium sp cultured on a PDA medium and pulverizing whole medium and mixing to a commercial soil, was used for a bed soil. After covering the seeds with soil, the seeds were incubated at 30 degree centigrade for 2 days and then arranged under a condition of 5 degree centigrade for 2 days to enhance disease emergence. After the low temperature treatment, the seeds were grown in a greenhouse.
as §1

[10] = test system: Rhizopus chinensis; experiment: Test Example 8: control test on seedling blight (Rhizopus sp), irrigation; assay type: in vivo; details: irrigation 500 ml per box
Description: 150 g of rice seeds (cultivar: Nihonbare) per a box was sowed in a commercial nursery box. After the sowing, the box was treated by irrigation with a compound solution which was diluted to the prescribed concentration at a ratio of 500 ml per a box before covering the seeds with soil. Infected soil, which was made by adding sterilized water to Rhizopus chinensis cultured on a PDA medium and pulverizing whole medium and mixing to a commercial soil, was used for a bed soil. For covering the seeds, a commercial soil was used as it was. After covering the seeds with soil, the seeds were incubated at 32 degree centigrade for 2 days and then grown in a greenhouse.
After 18 days from the sowing, the severity index for 300 seedlings per each compound was examined in the following criteria. The control value was calculated according to the following equation from the average severity obtained by averaging the severity index of each seedling.
Severity index 0: No lesion • 1: Root browning or fat root observed • 2: Defective growth • 3: Withered to death
(§4) Control Value=(1−average severity in the treated plot/average severity in the untreated plot)×100

[11] = test system: bacterial seedling blight; experiment: Test Example 10: control test on bacterial seedling blight, seed immersion; assay type: in vivo; details: seed immersion 24 hours
Description: 150 g of dry rice seeds of naturally infected with bacterial seedling blight (cultivar: Nihonbare) was immersed in a compound solution which was diluted with water to have a prescribed concentration at a volume ratio of 1:1 (liquid temperature; 20 degree centigrade) for 24 hours and air-dried. Subsequently, the seeds were soaked in water at 15 degree centigrade for 4 days and subjected to a sprouting in water at 30 degree centigrade for 24 hours, and then sowed in a nursery box. After the sowing, the seeds were incubated at 30 degree centigrade for 2 days and grown in a greenhouse. After 21 days from the sowing, the severity index for 300 seedlings per each compound was examined on the basis of the following criteria, and the control value was calculated according to the following equation from the average severity obtained by averaging the severity index of each seedling.
Severity index 0: healthy seedling • 1: yellowing or etiolated seedling • 2: dead seedling (withered)
as §4

[12] = test system: clubroot; experiment: Test Example 11: control test on clubroot of cabbages, soil treatment; assay type: in vivo, Plasmodiophora brassicae; details: dust formulation mixed in soil, 60 gai/10a
Description: A dust formulation in a prescribed amount was mixed in soil and cabbage seedlings (cultivar: Shiki-dori) were planted in the field where was recognized to be infected by clubroot. After 60 days from the treatment, plants were picked out, and clubroot formation was examined according to the degree of severity. The control value was calculated according to the following equation from the average severity obtained by averaging the severity index in each plot.
Severity index 0: No clubroot formed • 1: Cluroot was formed at a portion of from not less than 1% to less than 25% of the whole root • 2: Cluroot was formed at a portion of from not less than 25% to less than 50% of the whole root • 3: Cluroot was formed at a portion of from not less than 50% to less than 75% of the whole root • 4: Cluroot was formed at a portion of not less than 75% of the whole root
as §4

[13] = rice blast, sprayed at 60 ppm active ingredient, lesions after 7 days

In the case of CCCCNC(=O)n1c(NC(=O)OC)nc2ccccc21 [Benomyl, reference compound], the Control value ([1]; 1000 ppm) is reported as 98.
Cc1ccc(C(=O)NC(CNC(=O)OCC(F)(F)F)C(C)C)cc1 (stereo not shown) [Compound 6, N-(2,2,2-trifluoroethyloxycarbonyl)-N′-(4-methylbenzoyl)-3-methyl-1,2-butanediamine] was tested, and the Control value [2] was 3, the Control value ([3]; 225 gai/10a) was 5 and the Control value ([4]; 7.5 gai/box) was 4. The Control value ([5]; rice blast, nursery box application of granule, 7.5 gai/box) was 96, the pest or weed control at 60 ppm [6] was 97% and the Control value ([7]; rice blast, submerged application of granule, 225 gai/10a) was 95. For the same molecule, the “Effect (class of control value)” value [8, 13] was “A (Not less than 80%)”.
With C=C(Cl)COC(=O)NC(CNC(=O)c1ccc(C)cc1)C(C)C (stereo not shown) [Compound 15] the Control value [2] was 4, the Control value ([3]; 225 gai/10a) was 5 and the Control value ([4]; 7.5 gai/box) was 3. It also gave a Control value ([5]; in vivo) of 95, a Control value [6] of 94 and a Control value ([7]; in vivo) of 95. The Control value ([9]; 60 ppm) was 4 and the “Effect (class of control value)” value ([8]; in vivo) was “A (key: A: Not less than 80%; B: Not less than 50% to less than 80%; C: Less than 50%)”.
Cc1ccc(C(=O)NC(CNC(=O)OC2CCCCC2Cl)C(C)C)cc1 (stereo not shown) [Compound 17, N-(2-chlorocyclohexyloxycarbonyl)-N′-(4-methylbenzoyl)-3-methyl-1,2-butanediamine] was tested, and the Control value [2] was 5, the pest or weed control at 60 ppm [6] was 95% and the “Effect (class of control value)” value [8, 13] was “A (Not less than 80%)”. The Control value ([10]; 60 ppm) was 3.
With CC(C)C(CNC(=O)c1cc2ccccc2o1)NC(=O)OCC(F)(F)F (stereo not shown) [Compound 28] the Control value [2] was 6, the Control value ([3]; 225 gai/10a) was 6 and the Control value ([4]; 7.5 gai/box) was 5. For the same molecule, the Control value ([11]; 60 ppm) was 6, the Control value ([5]; in vivo) was 96 and the Control value [6] was 97. The Control value ([7]; in vivo) was 96 and the “Effect (class of control value)” value ([8]; in vivo) was “A (key: A: Not less than 80%; B: Not less than 50% to less than 80%; C: Less than 50%)”.
With CCC(C)C(CNC(=O)c1cc2ccccc2o1)NC(=O)OCC(F)(F)F (stereo not shown) [Compound 32] the Control value ([1]; 60 ppm) was 12, the Control value [2] was 5 and the Control value [6] was 95. The “Effect (class of control value)” value ([8]; in vivo) was “A (key: A: Not less than 80%; B: Not less than 50% to less than 80%; C: Less than 50%)”.
CCC(C)C(CNC(=O)c1nc2ccccc2s1)NC(=O)OCC(F)(F)F (stereo not shown) [Compound 33] gave a Control value ([1]; 60 ppm) of 8, a Control value [2] of 6 and a Control value [6] of 96. The “Effect (class of control value)” value ([8]; in vivo) was “A (key: A: Not less than 80%; B: Not less than 50% to less than 80%; C: Less than 50%)”.
With CC(C)C(CNC(=O)c1cc2ccccc2s1)NC(=O)OCC(F)(F)F (stereo not shown) [Compound 34] the Control value [2] was 7, the Control value [6] was 97 and the “Effect (class of control value)” value ([8]; in vivo) was “A (key: A: Not less than 80%; B: Not less than 50% to less than 80%; C: Less than 50%)”. For the same molecule, the Control value ([10]; 60 ppm) was 3.
Work on N#Cc1c[nH]cc1-c1cccc2c1OC(F)(F)O2 [Fludioxonil, reference compound] yielded a Control value ([1]; 250 ppm) of 99.
O=[N+]([O-])c1ccc(NS(=O)(=O)c2ccc(Cl)c(C(F)(F)F)c2)c(Cl)c1 [Flusulfamide] gave a Control value [12] of 93.
For Cc1cc(O)no1 [Hydroxyisoxazole, reference compound], the Control value ([9]; 800 ppm) was 90.
Work on CC(C)NC(=O)N1CC(=O)N(c2cc(Cl)cc(Cl)c2)C1=O [Iprodione, reference compound] yielded a Control value ([10]; 1000 ppm) of 89.
In the case of CNC(=O)/C(=N/OC)c1ccccc1CO/N=C(C)/C(=N/OC)C(/C)=N/OC [Oryzastrobin, reference compound], the Control value ([3]; 100 gai/10a) is reported as 95, the Control value ([4]; 3.5 gai/box) is reported as 94 and the Control value ([7]; rice blast, submerged application of granule, 100 gai/10a) is reported as 99.
CCn1cc(C(=O)O)c(=O)c2cc3c(cc21)OCO3 [Oxolinic acid, reference compound] showed a Control value ([11]; 500 ppm) of 89.
N#Cc1c(Cl)c(Cl)c(Cl)c(C#N)c1Cl [TPN, reference compound] showed a Control value ([10]; 800 ppm) of 87.
